From publication PMC11434960, “Evaluation of [^68Ga]Ga-DOTA-AeK as a Potential Imaging Tool for PET Imaging of Cell Wall Synthesis in Bacterial Infections” (Pharmaceuticals, 2024)
“Also recorded” adds a separate entry of the source. Read-outs that look alike come from different tables or passages of the source. Starred links: 1 amine or outer side, 2 acyl side, 3 side chain; linkers in the order of their positions; H or OH if unused. Non-standard residues stand in square brackets, D forms with d. Residues, ends and D or L forms follow the SMILES beside them. *: point of attachment. DOTA = O=C(O)CN1CCN(CC(=O)O)CCN(CC(=O)*)CCN(CC(=O)O)CC1; d(γGlu) = O=C(O)[C@@H](CCC(=O)[*:2])N[*:1]

What was measured:
[1] = tested on: S. aureus; experiment: Bacterial cell uptake of radiotracer in live and heat-killed cultures; assay type: cell-based, Staphylococcus aureus; settings: 37 °C
Description: (§1) Overnight bacterial cell cultures of E. coli or S. aureus were grown in Tryptic Soy Broth (TSB) medium at 37 °C. The […] McFarland standard was prepared using DEN-18 McFarland Densitometer (Biosan, Riga, Latvia). For control studies, the same amount of bacterial culture was heat-killed via 30 min incubation at 90 °C. The culture viability was confirmed using agar plating with overnight incubation. All tests were initiated by adding 4.1 ± 1.23 MBq of [^68Ga]Ga-DOTA-AeK product solution (4.86 ± 1.45 GBq/µmol) to 1.0 mL of the bacterial suspension (1.8 × 10^8 cells/mL), and mixtures were maintained while shaking at 37 °C. At specific time intervals (10, 60, and 120 min), samples of the suspension were centrifuged at 16,211 g for 10 min (Digicen 21R, United Scientific, Goodwood, South Africa), and the supernatant was transferred into a plastic tube. The pellet was washed with 3 mL of PBS (140 mM sodium chloride, 10 mM phosphate buffer, and 3 mM potassium chloride, pH 7.4) and centrifuged at 16,211 g for 10 min. […] The radioactivity in the supernatant and pellet fraction were measured using an automatic gamma counter (Hidex AMG, LabLogic, Turku, Finland). The percentile of [^68Ga]Ga-DOTA-AeK cell uptake was calculated as follows:Uptake (%) = [counts in cell pellet ÷ total counts (cell pellet + supernatants)] × 100(3)

[2] = tested on: E. coli; experiment: as above; assay type: cell-based, Escherichia coli; settings: 37 °C
Description: as §1

[3] = assay type: in vitro ADME
Description: The plasma protein binding filter assay described by Müller et al. was adopted. Before the experiment, Amicon® Ultra-0.5 centrifugal 10 kDa MWCO filter units (Merck, Darmstadt, Germany) were pre-washed with 200 µL of phosphate-buffered saline (PBS) for 20 min at 18,611 g using the Microfuge 16 centrifuge (Beckman Coulter Life Sciences, Brea, CA, USA). Subsequently, 800 µL of plasma was spiked with 200 µL of purified [^68Ga]Ga-DOTA-AeK, vortexed for 3 s, and incubated for 120 min at 37 °C. For radioanalysis, a 100 µL plasma sample was taken at different time intervals (30, 60, and 120 min), diluted (1:1) with PBS, aliquoted into filter units, and centrifuged at 14,800 rpm for 20 min. A similar procedure was carried out in PBS (140 mM NaCl, 10 mM phosphate buffer, and 3 mM KCl, pH 7.4) as a control. After centrifugation, each filter unit was washed by adding 100 µL of PBS (140 mM NaCl, 10 mM phosphate buffer, and 3 mM KCl, at pH 7.4, and centrifuged as described above. The counts of the filtrate fraction (representing unbound compound) and on the filter (protein-bound compound) were measured using a Capintec Captus 4000E well counter (Florham Park, NJ, USA). The percentage of the protein-bound radiotracer was calculated using the following equation:% Protein bound = [counts in filter ÷ total counts (filtrate fraction+ filter)] × 100(2)

[4] = assay type: physicochemical
Description: The compound hydrophobicity was determined using the octanol–water partition coefficient “shake flask method” described by Lambidis et al.. In brief, 100 µL of purified [^68Ga]Ga-DOTA-AeK was added to 400 µL of ultrapure water. The aqueous solution was added to an equal volume of 1-octanol (Sigma-Aldrich, Darmstadt, Germany), and the mixture was mechanically shaken for approximately 3 min at room temperature. The sample was centrifuged at 16,211 g for 5 min using a Digicen 21 R centrifuge (Orto Alresa, Madrid, Spain). The aqueous and organic phases of the sample were separated, and samples from each phase were analyzed using a dose calibrator. The logarithmic partition coefficient, Log P, was calculated using the following formula:Log P = Log [(counts in octanol/counts in water)](1)

[5] = assay type: in vivo, BALB/c mice; settings: mouse, in vivo, iv, Ex vivo organ biodistribution
Description: (§2) Six-to-eight-week-old mixed-gender BALB/c mice (20.0 ± 2.1 g) were utilized. Animals were pre-grouped (two mice/cage) into individually ventilated cages (IVC, Tecniplast, Buguggiate, Italy) and kept under standard housing conditions (22 ± 2 °C, 55 ± 10% humidity, 15 ± 5 Pa, and 12 h light/dark cycles) with food and water being provided ad libitum. Each experimental group consisted of 5 animals.
(§3) A thigh muscle mouse model of infection and inflammation was developed for imaging purposes by adopting procedures from a previous study with some modifications. In brief, animals were inoculated intramuscularly (right hind leg) with 1.5 × 10^7 colony forming units (CFU)/mL of S. aureus or E. coli suspended in 100 µL of culture media. To induce sterile inflammation, the same mice received 100 µL of a turpentine oil solution intramuscularly into the left hind leg. Infection was allowed to develop for 3–5 days, which is typical for a model of chronic infections, and a health check, including monitoring of the infection and inflammation sites, was conducted. At 3 and 5 days after the inoculations, all animals underwent whole-body [^68Ga]Ga-DOTA-AeK microPET/CT imaging, and after euthanasia, a complete ex vivo organ tissue biodistribution radioactive assay was performed.
(§4) A total volume of 100 µL of [^68Ga]Ga-DOTA-AeK (7.4 ± 2.0 MBq, 5% EtOH/PBS, pH 7.0) was administered as an intravenous bolus via the tail vein. At the same time, the animals were kept anesthetized, (4% isoflurane in oxygen for induction and 1.5–2.5% for maintenance). Non-invasive, whole-body microPET/CT imaging was performed using a Mediso nanoScan® PET/CT scanner (Budapest, Hungary). A previously described, image acquisition was performed. The PET/CT imaging procedure consisted of static whole-body scans per animal commencing at 60 min post-injection. The imaging protocol included the X-ray topogram (30 s) to ascertain the correct animal placement followed by CT image acquisition (4–5 min) and 20 min long PET image acquisition. Image reconstruction and analysis were performed as previously described.
(§5) After PET/CT imaging, the mice were euthanized via cervical dislocation while still under anesthesia. The different organs (spleen, pancreas, stomach, intestine, kidneys, liver, heart, lung, muscle, and femur) were collected into pre-weighed tubes. The radioactivity of each sample was determined using an automatic gamma counter (Hidex AMG, Turku, Finland). Results were expressed as a percentage of injected dose per gram organ (%ID/g). Subsequently, both muscles on the left and right thighs were fixed in 4% paraformaldehyde and submitted to the University of Pretoria, Department of Paraclinical Science, for hematoxylin and eosin (H&E) and Gram staining. Infection and inflammation tissue analysis was performed by a qualified pathologist.

[6] = tested on: E. coli; assay type: in vivo, BALB/c mice
Description: as §2, §3, §4, §5

[7] = tested on: S. aureus; assay type: in vivo, BALB/c mice
Description: as §2, §3, §4, §5

[8] = assay type: in vivo, BALB/c mice; settings: mouse, in vivo, iv, Ex vivo organ biodistribution; remark: listed apart in the source
Description: as §2, §3, §4, §5

[9] = tested on: S. aureus; experiment: Bacterial uptake and incorporation of AeK-NBD, flow cytometry; assay type: cell-based, Staphylococcus aureus
Description: (§6) Bacterial cell cultures (either live or heat-killed) of E. coli or S. aureus (1.0 McFarland standard) were prepared as described above. For bacterial staining, 2.0 μL (100 mM in DMSO) of fluorescent AeK-NBD was added to 198 μL of bacterial culture (7.7 × 10^7 cells/mL), and cells were counterstained with 2.0 μL (10 μM in DMSO) of membrane-permeable DNA Vybrant DyeCycle (VDC) Ruby dye (Thermo Fisher Scientific, Waltham, MA, USA). All cultures were incubated at 37 °C, and samples were taken at different intervals (10, 30, and 60 min) to perform flow cytometric analysis (Cytoflex, Beckman Coulter Life Sciences, Brea, CA, USA). AeK-NBD was excited with a 488 nm laser, and the emitted fluorescence was collected using a 540/30 nm band pass filter, as carried out previously. The VDC Ruby dye was excited with a 638 nm laser, and the emitted fluorescence was collected using a 712/25 nm band pass filter. No noticeable spillover was observed when VDC Ruby ‘only’ and AeK-NBD ‘only’ controls were used as controls for possible fluorescence spillover. […] The NBD-AeK median fluorescence intensity (MFI) of VDC Ruby-positive bacteria was reported. […]
(§7) Sample preparation of E. coli and S. aureus suspensions for confocal fluorescence microscopy imaging involved immediate staining with AeK-NBD and membrane-permeable DNA VDC Ruby dye for 10 min, as described in the previous section. […]

[10] = tested on: E. coli; experiment: as above; assay type: cell-based, Escherichia coli
Description: as §6, §7

[11] = tested on: E. coli; parameters: method as in PMID 3891732; settings: in vitro; cited from earlier work

C[C@H](N)C(=O)N[C@H](CCC(=O)N[C@@H](CCCCNC(=O)CN1CCN(CC(=O)O)CCN(CC(=O)O)CCN(CC(=O)O)CC1)C(=O)O)C(=O)O [[^68Ga]Ga-DOTA-AeK, metal not drawn] (H-Ala-[d(γGlu)]-Lys(DOTA)-OH)
cellular uptake, live versus heat-killed bacteria ([1]; any time point up to 120 min): No significant increase in radioactivity above the heat-killed bacterial cells | radiotracer detected in the medium ([1]; up to 120 min): ~ 98% | cellular uptake, live versus heat-killed bacteria ([2]; any time point up to 120 min): No significant increase in radioactivity above the heat-killed bacterial cells | radiotracer detected in the medium ([2]; up to 120 min): ~ 98% | protein-bound fraction [3]: approximately 10.18 ± 6.9% | logP [4]: -1.08 | tracer recovered within the aqueous phase ([4]; octanol/water partition, n = 3): 92.3 ± 0.04% | tissue uptake at 1 h ([5]; Brain): 0.1 %ID/g | tissue uptake at 1 h ([5]; Heart): 0.8 ± 0.4 %ID/g | tissue uptake at 1 h ([5]; Inflammation): 0.9 %ID/g | tissue uptake at 1 h ([5]; Liver): 1.1 ± 0.2 %ID/g | tissue uptake at 1 h ([5]; Lungs): 1 ± 0.1 %ID/g | tissue uptake at 1 h ([5]; Muscle): 0.7 ± 0.4 %ID/g | tissue uptake at 1 h ([5]; Pancreas): 0.6 ± 0.3 %ID/g | tissue uptake at 1 h ([5]; Thyroid): 1 ± 0.7 %ID/g | uptake in the infectious foci (PET/CT and ex vivo tissue counting) ([6]; E. coli, Day 3 and Day 5 post-inoculation, 60 min after iv injection): no significant uptake in the infectious foci | clearance route ([6]; mouse, in vivo): rapid clearance mainly via renal excretion | Ex vivo organ biodistribution, Brain ([6]; mouse, in vivo, iv, 1 h): 0.2 ± 0.2 %ID/g | Ex vivo organ biodistribution, Heart ([6]; mouse, in vivo, iv, 1 h): 1.6 ± 1.3 %ID/g | Ex vivo organ biodistribution, Kidneys ([6]; mouse, in vivo, iv, 1 h): 2.9 ± 0.7 %ID/g | Ex vivo organ biodistribution, Liver ([6]; mouse, in vivo, iv, 1 h): 1.2 ± 0.4 %ID/g | Ex vivo organ biodistribution, Lungs ([6]; mouse, in vivo, iv, 1 h): 2.0 ± 0.4 %ID/g | uptake in the infectious foci (PET/CT and ex vivo tissue counting) ([7]; S. aureus, Day 3 and Day 5 post-inoculation, 60 min after iv injection): no significant uptake in the infectious foci | clearance route ([7]; mouse, in vivo): rapid clearance mainly via renal excretion | Ex vivo organ biodistribution, Adipose ([7]; mouse, in vivo, iv, 1 h): 1.9 ± 0.3 %ID/g | Ex vivo organ biodistribution, Brain ([7]; mouse, in vivo, iv, 1 h): 0.2 ± 0.0 %ID/g | Ex vivo organ biodistribution, Femur ([7]; mouse, in vivo, iv, 1 h): 2.0 ± 0.2 %ID/g | Ex vivo organ biodistribution, Heart ([7]; mouse, in vivo, iv, 1 h): 3.7 ± 0.5 %ID/g | Ex vivo organ biodistribution, Infection ([7]; mouse, in vivo, iv, 1 h): 0.9 ± 0.3 %ID/g | Ex vivo organ biodistribution, Intestines ([7]; mouse, in vivo, iv, 1 h): 1.8 ± 0.8 %ID/g | Ex vivo organ biodistribution, Kidneys ([7]; mouse, in vivo, iv, 1 h): 7.0 ± 0.1 %ID/g | Ex vivo organ biodistribution, Pancreas ([7]; mouse, in vivo, iv, 1 h): 2.3 ± 0.2 %ID/g | Ex vivo organ biodistribution, Spleen ([7]; mouse, in vivo, iv, 1 h): 1.6 ± 0.6 %ID/g | Ex vivo organ biodistribution, Stomach ([7]; mouse, in vivo, iv, 1 h): 1.1 ± 0.4 %ID/g | tissue uptake at 1 h ([8]; Brain): 0.1 %ID/g | tissue uptake at 1 h ([8]; Intestines): 1.2 ± 1.9 %ID/g | tissue uptake at 1 h ([8]; Stomach): 0.7 ± 0.5 %ID/g

L-Ala-γ-D-Glu-L-Lys-N-7-nitro-2,1,3-benzoxadiazol-4-yl [AeK-NBD]
time at which bacterial incorporation was observed ([9]; S. aureus, 37 °C): 10 min | fluorescence intensity in live cells (flow cytometry) ([9]; live S. aureus, significantly decreased in heat-killed cultures (p < 0.05), up to 60 min): high fluorescence intensity | time at which bacterial incorporation was observed ([10]; E. coli, 37 °C): 10 min | fluorescence intensity in live cells (flow cytometry) ([10]; live E. coli, significantly decreased in heat-killed cultures (p < 0.05), up to 60 min): high fluorescence intensity

L-Ala-γ-D-Glu-[^3H]A2pm
bacterial uptake / utilisation in PG recycling pathway [11]: successful in vitro integration; also recorded: effectively utilized by E. coli

^3H-labeled disaccharide-(L-Ala-D-Glu-meso-A2pm) tripeptide
bacterial uptake / utilisation in PG recycling pathway [11]: lack of bacterial uptake and internalization
